# Test results reported in US20230255964A1, “EXTENDED RELEASE DOSAGE FORMS FOR TYK2 INHIBITORS” (Bristol-Myers Squibb Company, priority 2019, published 2023).
# Assays:
# [1] = pH-dependent solubility; format: physicochemical; settings: pHs > 4
# Source text: For immediate release formulations, such pH-dependent properties may result in a reduction in bioavailability when dosed with acid reducing agents, such as, e.g., famotidine or omeprazole. […] While using the higher-energy, amorphous free base form of BMS-986165 helps address the above challenges, formulating amorphous BMS-986165 presents other challenges, including ensuring physical stability of the amorphous form during storage, and maintaining supersaturation of the compound during dissolution in the GI tract.
# [2] = Chemical stability of BMS-986165:HPMCAS-H SDDs upon storage (related substances); format: physicochemical; settings: API standard, no stability condition printed
# Description: Lots of 25% w/w BMS-986165 SDD with HPMCAS-H were assessed for physical and chemical stability. […] Dissolution performance in the microcentrifuge test was unchanged.
# There was no evidence of crystallization by PXRD in any SDD after storage for up to 6 months at 40° C./75%RH open (FIG. 1A and FIG. 1B). DSC data indicated slight changes similar to those observed in 25% w/w BMS-986165 SDD after exposure to 50° C./75%RH or 40° C./75%RH but there was no trend with API loading and the results were considered to reflect an “ageing” or “annealing” effect rather than crystal formation. Scanning electron microscopy (SEM) images confirmed the presence of a single phase homogenous dispersion (FIGS. 2A-C, FIGS. 3A-C, FIGS. 4A-C).
Structure (SMILES),solubility [1],"BMS-986165 (relative ret. time 1.00), related substances [2]",Total imporities >LOQ [2] [%]
"[2H]C([2H])([2H])NC(=O)c1nnc(NC(=O)C2CC2)cc1Nc1cccc(-c2ncn(C)n2)c1OC [BMS-986165 crystalline free base, 6-(cyclopropaneamido)-4-((2-methoxy-3-(1-methyl-1H-1,2,4-triazol-3-yl)phenyl)amino)-N-(methyl-d3)pyridazine-3-carboxamide]",low solubility,,
"[2H]C([2H])([2H])NC(=O)c1nnc(NC(=O)C2CC2)cc1Nc1cccc(-c2ncn(C)n2)c1OC [BMS-986165, 6-(cyclopropaneamido)-4-((2-methoxy-3-(1-methyl-1H-1,2,4-triazol-3-yl)phenyl)amino)-N-(methyl-d3)pyridazine-3-carboxamide]",,99.48,0.52
